The record followed here is EP0117811A2, “Fungicidal pharmaceutical compositions for oral administration” (SANOFI S.A., priority 1983, dated 1984).

Where two headings read alike, the source gives them in different places.

A short description of the data set: Bioavailability in the baboon: plasma levels of omoconazole after oral administration (microbiological agar diffusion assay, test germ Candida macedoniensis). Type of data set: in vivo, babouin. Conditions: fasted baboons. As to the method:
La biodisponibilité des compositions pharmaceutiques selon l'invention a été étudiée chez le babouin en comparaison avec le produit (I) seul.
Les études ont été conduites à la dose de 100 mg/kg d'omoconazole et les produits ont été administrés aux singes à jeun par sonde gastrique. […] Les dosages des taux plasmatiques d'omoconazole ont été effectués par une méthode microbiologique réalisée à l'aide d'une technique de diffusion en milieu gélosé avec comme germe test Candida macedoniensis.
Des essais ont été effectués selon la même méthode, avec les formulations des exemples 4, 5, 6, 9 et 14. Pour les 3 premiers cas, les formulations ont été administrées telles quelles (solution) tandis que les compositions des exemples 9 et 14 et l'omoconazole ont été administrés dans des gélules No. 2. […]

Regarding `C/C(=C(/OCCOc1ccc(Cl)cc1)c1ccc(Cl)cc1Cl)n1ccnc1` [Omoconazole], the AUC (baboon, 100 mg/kg omoconazole oral, mean of 4 animals, Ex 4, 5, 6 given as such, Ex 9, 14 and omoconazole in No. 2 capsules, read-out: Aire sous la courbe) was 11600 ng·h/mL. The Cmax (baboon, 100 mg/kg omoconazole oral, mean of 4 animals, Ex 4, 5, 6 given as such, Ex 9, 14 and omoconazole in No. 2 capsules, read-out: Concentration maximale) worked out at 1350 ng/mL; the Cmax (100 mg/kg omoconazole by gastric tube, mean of 3 animals) is given as 1,35 µg/ml. The Tmax (baboon, 100 mg/kg omoconazole oral, mean of 4 animals, Ex 4, 5, 6 given as such, Ex 9, 14 and omoconazole in No. 2 capsules, read-out: Temps de C. Max.) turned out to be 5.5 h. For the same compound, the AUC at 24 h (baboon, po, 100 mg/kg omoconazole by gastric tube, mean of 3 animals, sampling up to 24 h, read-out: aire sous la courbe) amounted to 11500 ng·h/mL.
